Measured values from patent publication US20130338106A1, “COMPOUNDS INHIBITING LEUCINE-RICH REPEAT KINASE ENZYME ACTIVITY” (priority 2011, published 2013).
Like-named read-outs stand apart in the source and are kept apart here.

Experiments:
Format in all cases: biochemical
CASEIN K1G2 = biological target: T1, CASEIN K1G2 (Homo sapiens, UniProt P78368); experiment: ProfilerPro Kinase Selectivity, CASEIN K1G2; conditions: tested at 10 uM, read-out: percent inhibition of the kinase activity
T1 construct: purchased Caliper LifeSciences
T1 sequence (P78368 whole entry): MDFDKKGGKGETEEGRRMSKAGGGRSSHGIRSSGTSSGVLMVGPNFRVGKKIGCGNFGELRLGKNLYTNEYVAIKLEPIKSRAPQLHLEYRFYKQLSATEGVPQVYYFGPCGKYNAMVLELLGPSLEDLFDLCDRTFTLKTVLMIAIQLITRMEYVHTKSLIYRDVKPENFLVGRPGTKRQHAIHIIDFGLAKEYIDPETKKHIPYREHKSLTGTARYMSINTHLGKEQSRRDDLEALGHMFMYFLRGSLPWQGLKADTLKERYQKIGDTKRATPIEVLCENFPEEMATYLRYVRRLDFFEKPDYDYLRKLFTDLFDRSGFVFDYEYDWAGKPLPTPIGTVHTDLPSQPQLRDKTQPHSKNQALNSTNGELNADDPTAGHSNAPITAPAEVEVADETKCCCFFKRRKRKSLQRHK
Method: (§1) Kinome selectivity profiling was performed using two example compounds according to the manufacturer's instructions using Caliper LifeSciences' ProfilerPro Kinase Selectivity Assay Kits. Compounds prepared in Examples 1 and 7 were tested at 10 uM and data were recorded using the Caliper LabChip® EZ Reader™. Each compounds' percent inhibition of the kinase activity measured in this manner is reported in the following lists.

DCAMKL2 = biological target: T2, DCAMKL2 (Homo sapiens, UniProt Q8N568); experiment: ProfilerPro Kinase Selectivity, DCAMKL2; conditions: tested at 10 uM, read-out: percent inhibition of the kinase activity
T2 construct: purchased Caliper LifeSciences
Method: as §1

MELK = biological target: T3, MELK (Homo sapiens, UniProt Q14680); experiment: ProfilerPro Kinase Selectivity, MELK; conditions: tested at 10 uM, read-out: percent inhibition of the kinase activity
T3 construct: purchased Caliper LifeSciences
Method: as §1

AURA = biological target: T4, AURA (Homo sapiens, UniProt O14965); experiment: ProfilerPro Kinase Selectivity, AURA; conditions: tested at 10 uM, read-out: percent inhibition of the kinase activity
T4 construct: purchased Caliper LifeSciences
Method: as §1

P38G = biological target: T5, P38G (Homo sapiens, UniProt P53778); experiment: ProfilerPro Kinase Selectivity, P38G; conditions: tested at 10 uM, read-out: percent inhibition of the kinase activity
T5 construct: purchased Caliper LifeSciences
Method: as §1

RET = biological target: T6, RET (Homo sapiens, UniProt P07949); experiment: ProfilerPro Kinase Selectivity, RET; conditions: tested at 10 uM, read-out: percent inhibition of the kinase activity
T6 construct: purchased Caliper LifeSciences
T6 sequence (P07949 29-1114, species assumed): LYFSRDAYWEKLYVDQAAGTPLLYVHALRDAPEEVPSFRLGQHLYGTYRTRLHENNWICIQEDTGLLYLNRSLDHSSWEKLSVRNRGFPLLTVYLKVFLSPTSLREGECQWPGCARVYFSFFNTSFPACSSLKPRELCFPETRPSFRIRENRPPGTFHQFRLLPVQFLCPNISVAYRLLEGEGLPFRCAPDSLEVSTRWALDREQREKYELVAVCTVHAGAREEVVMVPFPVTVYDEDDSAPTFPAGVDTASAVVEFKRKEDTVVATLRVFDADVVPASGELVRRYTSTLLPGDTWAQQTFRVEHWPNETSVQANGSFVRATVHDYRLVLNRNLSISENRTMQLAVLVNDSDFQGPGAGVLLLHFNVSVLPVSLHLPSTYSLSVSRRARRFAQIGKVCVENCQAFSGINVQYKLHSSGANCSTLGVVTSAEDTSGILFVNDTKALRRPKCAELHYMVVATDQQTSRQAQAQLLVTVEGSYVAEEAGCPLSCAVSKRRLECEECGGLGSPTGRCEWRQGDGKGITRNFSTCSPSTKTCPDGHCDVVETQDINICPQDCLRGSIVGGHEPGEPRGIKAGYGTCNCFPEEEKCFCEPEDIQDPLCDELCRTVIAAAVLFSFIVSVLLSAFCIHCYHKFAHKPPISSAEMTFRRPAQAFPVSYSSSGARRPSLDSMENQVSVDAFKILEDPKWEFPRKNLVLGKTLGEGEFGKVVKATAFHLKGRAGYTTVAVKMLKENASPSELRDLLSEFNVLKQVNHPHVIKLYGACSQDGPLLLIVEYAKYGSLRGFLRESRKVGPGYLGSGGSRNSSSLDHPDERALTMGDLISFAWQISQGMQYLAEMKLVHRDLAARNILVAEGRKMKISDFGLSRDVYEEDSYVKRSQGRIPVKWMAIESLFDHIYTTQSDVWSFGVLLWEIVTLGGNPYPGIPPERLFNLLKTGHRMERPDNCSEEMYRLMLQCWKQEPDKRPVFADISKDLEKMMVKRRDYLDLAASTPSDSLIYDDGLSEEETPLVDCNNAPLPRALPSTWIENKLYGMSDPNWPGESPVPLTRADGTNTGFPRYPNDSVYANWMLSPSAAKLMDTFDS
Method: as §1

MARK2 = biological target: T7, MARK2 (Homo sapiens, UniProt Q7KZI7); experiment: ProfilerPro Kinase Selectivity, MARK2; conditions: tested at 10 uM, read-out: percent inhibition of the kinase activity
T7 construct: purchased Caliper LifeSciences
Method: as §1

C-TAK1 = biological target: T8, C-TAK1 (Homo sapiens, UniProt P27448); experiment: ProfilerPro Kinase Selectivity, C-TAK1; conditions: tested at 10 uM, read-out: percent inhibition of the kinase activity
T8 construct: purchased Caliper LifeSciences
Method: as §1

KDR = biological target: T9, KDR (Homo sapiens, UniProt P35968); experiment: ProfilerPro Kinase Selectivity, KDR; conditions: tested at 10 uM, read-out: percent inhibition of the kinase activity
T9 construct: purchased Caliper LifeSciences
Method: as §1

DYRK1A = biological target: T10, DYRK1A (Homo sapiens, UniProt Q13627); experiment: ProfilerPro Kinase Selectivity, DYRK1A; conditions: tested at 10 uM, read-out: percent inhibition of the kinase activity
T10 construct: purchased Caliper LifeSciences
Method: as §1

PRKX = biological target: T11, PRKX (Homo sapiens, UniProt P51817); experiment: ProfilerPro Kinase Selectivity, PRKX; conditions: tested at 10 uM, read-out: percent inhibition of the kinase activity
T11 construct: purchased Caliper LifeSciences
Method: as §1

RET Y791F = biological target: T12, RET Y791F (Homo sapiens, UniProt P07949, Y791F); experiment: ProfilerPro Kinase Selectivity, RET Y791F; conditions: tested at 10 uM, read-out: percent inhibition of the kinase activity
T12 construct: purchased Caliper LifeSciences
T12 sequence (P07949 29-1114 Y791F): as the sequence (P07949 29-1114, species assumed) above, with Y763F counted along it
Method: as §1

RSK1 = biological target: T13, RSK1 (Homo sapiens, UniProt Q15418); experiment: ProfilerPro Kinase Selectivity, RSK1; conditions: tested at 10 uM, read-out: percent inhibition of the kinase activity
T13 construct: purchased Caliper LifeSciences
Method: as §1

HER4 = biological target: T14, HER4 (Homo sapiens, UniProt Q15303); experiment: ProfilerPro Kinase Selectivity, HER4; conditions: tested at 10 uM, read-out: percent inhibition of the kinase activity
T14 construct: purchased Caliper LifeSciences
Method: as §1

CDK2 = biological target: T15, CDK2 (Homo sapiens, UniProt P24941); experiment: ProfilerPro Kinase Selectivity, CDK2; conditions: tested at 10 uM, read-out: percent inhibition of the kinase activity
T15 construct: purchased Caliper LifeSciences
Method: as §1

FLT4 = biological target: T16, FLT4 (Homo sapiens, UniProt P35916); experiment: ProfilerPro Kinase Selectivity, FLT4; conditions: tested at 10 uM, read-out: percent inhibition of the kinase activity
T16 construct: purchased Caliper LifeSciences
Method: as §1

PRKCB2 = biological target: T17, PRKCB2 (Homo sapiens, UniProt P05771); experiment: ProfilerPro Kinase Selectivity, PRKCB2; conditions: tested at 10 uM, read-out: percent inhibition of the kinase activity
T17 construct: purchased Caliper LifeSciences
Method: as §1

DCAMKL1 = biological target: T18, DCAMKL1 (Homo sapiens, UniProt O15075); experiment: ProfilerPro Kinase Selectivity, DCAMKL1; conditions: tested at 10 uM, read-out: percent inhibition of the kinase activity
T18 construct: purchased Caliper LifeSciences
Method: as §1

IGF1R = biological target: T19, IGF1R (Homo sapiens, UniProt P08069); experiment: ProfilerPro Kinase Selectivity, IGF1R; conditions: tested at 10 uM, read-out: percent inhibition of the kinase activity
T19 construct: purchased Caliper LifeSciences
Method: as §1

MINK = biological target: T20, MINK (Homo sapiens, UniProt Q8N4C8); experiment: ProfilerPro Kinase Selectivity, MINK; conditions: tested at 10 uM, read-out: percent inhibition of the kinase activity
T20 construct: purchased Caliper LifeSciences
Method: as §1

SGK2 = biological target: T21, SGK2 (Homo sapiens, UniProt Q9HBY8); experiment: ProfilerPro Kinase Selectivity, SGK2; conditions: tested at 10 uM, read-out: percent inhibition of the kinase activity
T21 construct: purchased Caliper LifeSciences
Method: as §1

PDGFRB = biological target: T22, PDGFRB (Homo sapiens, UniProt P09619); experiment: ProfilerPro Kinase Selectivity, PDGFRB; conditions: tested at 10 uM, read-out: percent inhibition of the kinase activity
T22 construct: purchased Caliper LifeSciences
Method: as §1

RSK4 = biological target: T23, RSK4 (Homo sapiens, UniProt Q9UK32); experiment: ProfilerPro Kinase Selectivity, RSK4; conditions: tested at 10 uM, read-out: percent inhibition of the kinase activity
T23 construct: purchased Caliper LifeSciences
Method: as §1

CSNK1A1 = biological target: T24, CSNK1A1 (Homo sapiens, UniProt P48729); experiment: ProfilerPro Kinase Selectivity, CSNK1A1; conditions: tested at 10 uM, read-out: percent inhibition of the kinase activity
T24 construct: purchased Caliper LifeSciences
Method: as §1

KIT T670I = biological target: T25, KIT T670I (Homo sapiens, UniProt P10721, T670I); experiment: ProfilerPro Kinase Selectivity, KIT T670I; conditions: tested at 10 uM, read-out: percent inhibition of the kinase activity
T25 construct: purchased Caliper LifeSciences
Method: as §1

PKD3 = biological target: T26, PKD3 (Homo sapiens, UniProt O94806); experiment: ProfilerPro Kinase Selectivity, PKD3; conditions: tested at 10 uM, read-out: percent inhibition of the kinase activity
T26 construct: purchased Caliper LifeSciences
Method: as §1

FGFR3 K650E = biological target: T27, FGFR3 K650E (Homo sapiens, UniProt P22607, K650E); experiment: ProfilerPro Kinase Selectivity, FGFR3 K650E; conditions: tested at 10 uM, read-out: percent inhibition of the kinase activity
T27 construct: purchased Caliper LifeSciences
T27 sequence (P22607 23-806 K650E): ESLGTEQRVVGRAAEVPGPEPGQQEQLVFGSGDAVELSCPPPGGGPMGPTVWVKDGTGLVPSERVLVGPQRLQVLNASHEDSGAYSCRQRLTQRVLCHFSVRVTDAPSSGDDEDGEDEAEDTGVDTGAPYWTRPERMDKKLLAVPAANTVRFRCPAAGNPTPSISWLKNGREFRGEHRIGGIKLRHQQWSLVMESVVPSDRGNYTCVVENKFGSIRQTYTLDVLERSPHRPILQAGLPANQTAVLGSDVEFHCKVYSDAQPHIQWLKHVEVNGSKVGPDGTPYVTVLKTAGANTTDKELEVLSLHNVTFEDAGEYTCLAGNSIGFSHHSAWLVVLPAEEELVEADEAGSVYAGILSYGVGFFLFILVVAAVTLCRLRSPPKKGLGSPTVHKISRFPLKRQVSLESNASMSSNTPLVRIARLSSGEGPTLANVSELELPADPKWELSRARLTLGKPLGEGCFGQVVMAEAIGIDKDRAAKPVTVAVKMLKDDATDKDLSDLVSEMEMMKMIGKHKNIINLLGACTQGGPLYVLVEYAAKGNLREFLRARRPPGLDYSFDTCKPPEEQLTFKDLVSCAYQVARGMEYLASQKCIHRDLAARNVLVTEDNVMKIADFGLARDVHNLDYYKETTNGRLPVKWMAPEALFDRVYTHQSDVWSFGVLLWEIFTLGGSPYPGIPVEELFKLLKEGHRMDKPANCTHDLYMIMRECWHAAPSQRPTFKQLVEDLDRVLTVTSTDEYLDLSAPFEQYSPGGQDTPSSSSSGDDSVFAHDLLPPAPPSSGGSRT
Method: as §1

BMX = biological target: T28, BMX (Homo sapiens, UniProt P51813); experiment: ProfilerPro Kinase Selectivity, BMX; conditions: tested at 10 uM, read-out: percent inhibition of the kinase activity
T28 construct: purchased Caliper LifeSciences
T28 sequence (P51813 whole entry, species assumed): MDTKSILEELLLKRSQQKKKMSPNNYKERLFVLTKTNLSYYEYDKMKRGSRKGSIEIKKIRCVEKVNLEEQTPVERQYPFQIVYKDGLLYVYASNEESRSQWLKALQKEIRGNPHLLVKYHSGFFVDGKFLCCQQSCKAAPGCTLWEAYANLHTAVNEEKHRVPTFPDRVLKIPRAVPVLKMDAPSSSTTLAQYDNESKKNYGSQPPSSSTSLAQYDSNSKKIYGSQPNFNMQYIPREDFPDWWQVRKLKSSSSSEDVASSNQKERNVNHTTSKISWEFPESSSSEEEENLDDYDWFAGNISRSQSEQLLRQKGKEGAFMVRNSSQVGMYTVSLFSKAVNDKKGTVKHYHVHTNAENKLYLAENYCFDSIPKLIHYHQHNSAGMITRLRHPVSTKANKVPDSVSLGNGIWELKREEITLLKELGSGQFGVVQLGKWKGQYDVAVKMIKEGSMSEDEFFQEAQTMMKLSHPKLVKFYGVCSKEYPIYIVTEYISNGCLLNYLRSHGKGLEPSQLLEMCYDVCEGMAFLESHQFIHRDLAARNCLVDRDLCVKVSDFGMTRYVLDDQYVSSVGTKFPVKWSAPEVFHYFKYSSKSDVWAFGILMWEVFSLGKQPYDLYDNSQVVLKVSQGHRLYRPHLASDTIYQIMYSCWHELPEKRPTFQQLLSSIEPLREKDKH
Method: as §1

AXL = biological target: T29, AXL (Homo sapiens, UniProt P30530); experiment: ProfilerPro Kinase Selectivity, AXL; conditions: tested at 10 uM, read-out: percent inhibition of the kinase activity
T29 construct: purchased Caliper LifeSciences
Method: as §1

ROCK1 = biological target: T30, ROCK1 (Homo sapiens, UniProt Q13464); experiment: ProfilerPro Kinase Selectivity, ROCK1; conditions: tested at 10 uM, read-out: percent inhibition of the kinase activity
T30 construct: purchased Caliper LifeSciences
Method: as §1

MST2 = biological target: T31, MST2 (Homo sapiens, UniProt Q13188); experiment: ProfilerPro Kinase Selectivity, MST2; conditions: tested at 10 uM, read-out: percent inhibition of the kinase activity
T31 construct: purchased Caliper LifeSciences
T31 sequence (Q13188 whole entry, species assumed): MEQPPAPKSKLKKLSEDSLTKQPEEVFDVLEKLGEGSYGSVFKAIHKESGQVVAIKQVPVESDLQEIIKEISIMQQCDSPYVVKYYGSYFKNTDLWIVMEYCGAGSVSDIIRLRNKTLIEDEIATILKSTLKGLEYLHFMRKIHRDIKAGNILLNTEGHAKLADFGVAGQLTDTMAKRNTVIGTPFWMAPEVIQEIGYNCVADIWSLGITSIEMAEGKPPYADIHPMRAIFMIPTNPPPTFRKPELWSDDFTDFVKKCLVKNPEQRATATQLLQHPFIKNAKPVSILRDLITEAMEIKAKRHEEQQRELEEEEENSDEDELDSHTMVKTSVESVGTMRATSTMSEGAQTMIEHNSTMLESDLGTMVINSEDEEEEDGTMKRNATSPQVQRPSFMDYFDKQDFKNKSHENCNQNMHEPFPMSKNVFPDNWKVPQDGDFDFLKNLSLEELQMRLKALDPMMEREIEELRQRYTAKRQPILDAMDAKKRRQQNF
Method: as §1

SGK = biological target: T32, SGK (Homo sapiens, UniProt O00141); experiment: ProfilerPro Kinase Selectivity, SGK; conditions: tested at 10 uM, read-out: percent inhibition of the kinase activity
T32 construct: purchased Caliper LifeSciences
T32 sequence (O00141 whole entry, species assumed): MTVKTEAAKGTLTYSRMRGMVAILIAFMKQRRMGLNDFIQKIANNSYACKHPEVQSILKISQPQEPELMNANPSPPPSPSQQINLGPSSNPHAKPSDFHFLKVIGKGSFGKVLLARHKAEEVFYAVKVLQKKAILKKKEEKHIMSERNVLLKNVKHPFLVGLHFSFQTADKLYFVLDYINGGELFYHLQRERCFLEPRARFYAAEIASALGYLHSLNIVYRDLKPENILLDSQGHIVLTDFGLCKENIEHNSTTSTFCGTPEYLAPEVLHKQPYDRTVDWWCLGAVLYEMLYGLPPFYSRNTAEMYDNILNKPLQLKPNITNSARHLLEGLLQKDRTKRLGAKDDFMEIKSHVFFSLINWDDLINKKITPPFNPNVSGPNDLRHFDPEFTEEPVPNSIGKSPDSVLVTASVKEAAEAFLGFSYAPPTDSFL
Method: as §1

CAMK4 = biological target: T33, CAMK4 (Homo sapiens, UniProt Q16566); experiment: ProfilerPro Kinase Selectivity, CAMK4; conditions: tested at 10 uM, read-out: percent inhibition of the kinase activity
T33 construct: purchased Caliper LifeSciences
Method: as §1

DYRK3 = biological target: T34, DYRK3 (Homo sapiens, UniProt O43781); experiment: ProfilerPro Kinase Selectivity, DYRK3; conditions: tested at 10 uM, read-out: percent inhibition of the kinase activity
T34 construct: purchased Caliper LifeSciences
T34 sequence (O43781 whole entry, species assumed): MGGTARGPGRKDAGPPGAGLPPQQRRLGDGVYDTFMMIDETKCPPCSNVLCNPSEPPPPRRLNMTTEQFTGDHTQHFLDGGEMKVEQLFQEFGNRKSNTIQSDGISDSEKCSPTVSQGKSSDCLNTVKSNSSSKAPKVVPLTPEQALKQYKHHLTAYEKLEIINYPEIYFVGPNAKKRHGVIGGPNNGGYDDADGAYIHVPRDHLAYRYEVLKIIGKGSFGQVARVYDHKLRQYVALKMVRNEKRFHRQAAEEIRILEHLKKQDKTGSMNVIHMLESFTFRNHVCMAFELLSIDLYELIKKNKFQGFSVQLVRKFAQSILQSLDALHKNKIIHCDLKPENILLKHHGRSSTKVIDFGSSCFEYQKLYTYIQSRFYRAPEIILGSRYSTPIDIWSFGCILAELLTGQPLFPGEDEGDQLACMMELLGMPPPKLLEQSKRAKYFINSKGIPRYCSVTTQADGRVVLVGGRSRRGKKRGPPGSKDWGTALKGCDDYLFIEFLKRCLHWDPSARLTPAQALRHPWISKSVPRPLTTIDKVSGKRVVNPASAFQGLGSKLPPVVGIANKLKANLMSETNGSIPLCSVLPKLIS
Method: as §1

CDK5/P25 = biological target: T35, CDK5/P25 (Homo sapiens, UniProt Q00535); experiment: ProfilerPro Kinase Selectivity, CDK5/P25; conditions: tested at 10 uM, read-out: percent inhibition of the kinase activity
T35 construct: purchased Caliper LifeSciences
T35 sequence (Q00535 whole entry, species assumed): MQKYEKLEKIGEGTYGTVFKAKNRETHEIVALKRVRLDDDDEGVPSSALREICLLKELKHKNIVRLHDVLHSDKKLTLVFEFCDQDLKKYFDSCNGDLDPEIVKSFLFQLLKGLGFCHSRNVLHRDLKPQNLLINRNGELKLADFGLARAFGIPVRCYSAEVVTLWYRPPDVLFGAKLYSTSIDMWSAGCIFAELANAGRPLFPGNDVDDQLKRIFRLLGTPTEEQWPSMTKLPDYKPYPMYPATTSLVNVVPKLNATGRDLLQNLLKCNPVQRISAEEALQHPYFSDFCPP
T35 sequence (Q15078 99-307 partner limits assumed, species assumed): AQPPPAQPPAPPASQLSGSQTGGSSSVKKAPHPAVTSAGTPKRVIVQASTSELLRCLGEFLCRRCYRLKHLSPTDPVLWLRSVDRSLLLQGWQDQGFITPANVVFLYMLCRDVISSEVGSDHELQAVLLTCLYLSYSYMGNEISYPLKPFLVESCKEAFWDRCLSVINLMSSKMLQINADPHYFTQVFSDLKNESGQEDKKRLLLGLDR
Method: as §1

LRRK2 (G2019S) = biological target: T36, LRRK2 (G2019S) (Homo sapiens, UniProt Q5S007, G2019S); experiment: ProfilerPro Kinase Selectivity, LRRK2 (G2019S); conditions: read-out: percent inhibition of the kinase activity
T36 construct: purchased Caliper LifeSciences
Method: as §1, with “Reader™.” for “Reader™. Each compounds' percent inhibition of the kinase activity measured in this manner is reported in the following lists.”

ERK2 = biological target: T37, ERK2 (Homo sapiens, UniProt P28482); experiment: ProfilerPro Kinase Selectivity, ERK2; conditions: tested at 10 uM, read-out: percent inhibition of the kinase activity
T37 construct: purchased Caliper LifeSciences
Method: as §1

Structure (SMILES) | inhibition at 10 µM (CASEIN K1G2) [%] | inhibition at 10 µM (DCAMKL2) [%] | inhibition at 10 µM (MELK) [%] | inhibition at 10 µM (AURA) [%] | inhibition at 10 µM (P38G) [%] | inhibition at 10 µM (RET) [%] | inhibition at 10 µM (MARK2) [%] | inhibition at 10 µM (C-TAK1) [%] | inhibition at 10 µM (KDR) [%] | inhibition at 10 µM (DYRK1A) [%] | inhibition at 10 µM (PRKX) [%] | inhibition at 10 µM (RET Y791F) [%] | inhibition at 10 µM (RSK1) [%] | inhibition at 10 µM (HER4) [%] | inhibition at 10 µM (CDK2) [%] | inhibition at 10 µM (FLT4) [%] | inhibition at 10 µM (PRKCB2) [%] | inhibition at 10 µM (DCAMKL1) [%] | inhibition at 10 µM (IGF1R) [%] | inhibition at 10 µM (MINK) [%] | further results
CC1(C)CC(=O)c2c(SC3CCCC3)sc(-c3cc[nH]n3)c2C1 [Example 7, 3-(Cyclopentylsulfanyl)-6,6-dimethyl-1-(1H-pyrazol-3-yl)-6,7-dihydro-2-benzothiophen-4(5H)-one] | 8.6 | -4.2 | 7.3 | 11 | -0.2 | 20.7 | 9.2 | 4.7 | -0.8 | 0 | -6.6 | 11.1 | 3.3 | -2.2 | 2.1 | 2 | 6.4 | -2.1 | -3.7 | -1.5 | inhibition at 10 µM (SGK2): 5.4%; inhibition at 10 µM (PDGFRB): -1.4%; inhibition at 10 µM (RSK4): -5.6%; inhibition at 10 µM (CSNK1A1): 2%; inhibition at 10 µM (KIT T670I): 3%; inhibition at 10 µM (PKD3): 2.6%; inhibition at 10 µM (FGFR3 K650E): -4.2%; inhibition at 10 µM (BMX): -30.7%; inhibition at 10 µM (AXL): 12.3%; inhibition at 10 µM (ROCK1): 5.1%; inhibition at 10 µM (MST2): -2.3%; inhibition at 10 µM (SGK): -1.3%; inhibition at 10 µM (CAMK4): -1.5%; inhibition at 10 µM (DYRK3): -8.5%; inhibition at 10 µM (CDK5/P25): -11.7%; inhibition at 10 µM (LRRK2 (G2019S); LRRK2 (G2019S), tested at 10 uM): 78.3%; inhibition at 10 µM (ERK2): -0.9%
CSc1sc(-c2cc[nH]n2)c2c1C(=O)CCC2 [Example 1, 3-(Methylsulfanyl)-1-(1H-pyrazol-3-yl)-6,7-dihydro-2-benzothiophen-4(5H)-one] | 6.9 | -0.8 | 11 | 44 | 23.3 | 24.4 | 0.3 | 5.3 | 16.4 | 44 | -0.6 | 37.6 | 9.5 | -2.4 | 18.4 | 22.5 | -7.4 | -2.5 | 5.4 | 24.8 | inhibition at 10 µM (SGK2): 10.6%; inhibition at 10 µM (PDGFRB): 22.1%; inhibition at 10 µM (RSK4): 2.9%; inhibition at 10 µM (CSNK1A1): 12.4%; inhibition at 10 µM (KIT T670I): 10.6%; inhibition at 10 µM (PKD3): 12%; inhibition at 10 µM (FGFR3 K650E): 3.7%; inhibition at 10 µM (BMX): -10.9%; inhibition at 10 µM (AXL): 13.5%; inhibition at 10 µM (ROCK1): -3.1%; inhibition at 10 µM (MST2): 12.3%; inhibition at 10 µM (SGK): -5.1%; inhibition at 10 µM (CAMK4): 20.1%; inhibition at 10 µM (DYRK3): 11.7%; inhibition at 10 µM (CDK5/P25): 9.5%; inhibition at 10 µM (LRRK2 (G2019S)): 88.3%; inhibition at 10 µM (ERK2): 4.5%
